{"source": "paper PMC10111420", "about": "“Optimization of Host Cell-Compatible, Antimicrobial Peptides Effective against Biofilms and Clinical Isolates of Drug-Resistant Bacteria” (ACS Infectious Diseases, 2023)", "key": {"[1]": {"tested_on": "P. aeruginosa and MRSA wound biofilms", "assay": "SEM of Tegaderm wound dressing, both bacteria pooled", "type": "in vivo, CD1 mice", "settings": "68 images from treated animals, Day 3 Tegaderm", "excerpt": "(§1) The Tegaderm dressing used in the murine wound model is an excellent substrate for bacterial adhesion and biofilm formation.[5],[15] […] We imaged three to four randomly selected areas of each Tegaderm sample at two magnifications each. Each image is scored for the presence/absence of bacterial cells, either rod-shaped P. aeruginosa, ∼1 μm in diameter, or spherical MRSA cocci, ∼0.9 μm in diameter. Images are also scored for biofilm-like structures defined by having multiple bacteria embedded in an obvious three-dimensional matrix. These distinctions are shown by representative images of the fixed Tegaderm dressings in Figure 9A,B. In vehicle control samples, we observed that P. aeruginosa frequently forms an open, three-dimensional matrix in which many cells are entangled in μm-long fibers. We observed that MRSA also forms a matrix in which cells are close-packed in strands that comprise a large-scale mesh. Every SEM image (68/68) from vehicle control samples of the two bacteria contained obvious visible bacteria, and most of these images contained ≥50 individual cells. In samples from peptide-treated animals, 57 of 68 (84%) of images had no visible bacteria. […] We performed a statistical analysis of observed bacteria and biofilms using the binomial equation. P-values for all comparisons of treated vs vehicle were less than 0.001. […]"}, "MRSA wound biofilms": {"tested_on": "MRSA wound biofilms", "assay": "SEM of Tegaderm wound dressing, MRSA", "type": "in vivo, CD1 mice", "settings": "dressing removed on Day 3, treated three times a day", "excerpt": "as §1"}, "human RBCs": {"tested_on": "human RBCs", "type": "cell-based", "procedure,_shortened": "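Washed human O+ erythrocytes (2 × 10^8 cells/mL stock, mixed 1:1) were incubated with peptide serially diluted from 100 μM in PBS for 1 h at 37 °C. Released hemoglobin was read at 410 nm in supernatant; fractional hemolysis calculated against 1% Triton (100%) and 0% lysis controls, averaged over ≥3 experiments.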"}, "[2]": {"tested_on": "P. aeruginosa PAO1 (EYFP) pellicle biofilms", "assay": "Pellicle biofilm assay, viable cell enumeration", "type": "cell-based, Pseudomonas aeruginosa", "description": "Here, we directly compare the antibiofilm activity of D-CONGA and D-CONGA-Q7 using a mature pellicle biofilm of P. aeruginosa.[22] […] To determine the susceptibility of pellicle biofilms to D-CONGA and D-CONGA-Q7, we cultured 2-day-old biofilms as described in the Methods section. The coverslip-adhered biofilms were exposed to challenge solution for 24 h prior to staining with SYTOX red and imaging with CLSM for EYFP, which indicates live cells, and for SYTOX Red which stains dead cells and extracellular DNA. […] The % cell survival was quantitated in two ways: (i) COMSTAT was used to compare biofilm biomass in CLSM images by estimating the biofilm biovolume, which is calculated as the overall volume/substratum area (μm^3/μm^2).[24],[25] […] (ii) The biofilms were dispersed mechanically for subsequent enumeration of viable cells such that % survival is expressed as the ratio (CFUuntreated biofilm/CFUtreated biofilm).\nThe susceptibility of biofilm-embedded P. aeruginosa cells to the antimicrobial peptides was studied as reported previously[23] using a P. aeruginosa PAO1 strain expressing enhanced yellow fluorescent protein (EYFP).[22] The EYFP-expressing P. aeruginosa strain was routinely grown in Pseudomonas Isolation (PI) media (20 g/L peptone, 0.3 g/L, MgCl2·6H2O, 10 g/L, K2SO4, 25 mg/L irgasan, and 20 mL/L glycerol, pH 7.0). […] Iron supplementation was carried out by addition of a small volume of filter-sterilized 10 mM (NH4)2Fe(SO4)2 (pH ∼ 2.0) solution.\nIn brief: Starter cultures (5 mL PI media supplemented with 10 μM Fe) were grown (14 h) from a single-colony shaking (220 rpm) at 37 °C. To grow the pellicle biofilms, starter cultures were diluted to OD600 = 0.001 in 4 mL of PI media supplemented with 20 μM Fe, placed in 35 × 10 mm Petri dishes, and incubated statically at 30 °C for 48 h. The pellicles were harvested using circular (1.5 cm diameter) glass coverslips by gently allowing the surface of a coverslip to contact the biofilm at the air–liquid interface. […]"}, "[3]": {"tested_on": "P. aeruginosa wound biofilms", "assay": "SEM of Tegaderm wound dressing, P. aeruginosa", "type": "in vivo, CD1 mice", "settings": "dressing removed on Day 3, treated three times a day", "excerpt": "as §1"}, "wound infections": {"tested_on": "wound infections", "assay": "Murine wound model, once or twice per day dosing and viscous polymer formulations", "type": "in vivo, mice", "settings": "75 μg of peptide in 20 μL of buffer (PBS)", "excerpt": "Preliminary data had shown that once per day treatments in a simple aqueous vehicle were ineffective against wound infections in this model, see Figure S2. Three times per day is required for efficacy in simple media, Figure 8. Therefore, we also tested the effectiveness of D-CONGA-Q7 formulated in aqueous suspensions of carboxymethyl cellulose and Xanthan gum, which are anionic carbohydrate polymers that create highly viscous solutions at ∼1% w/v concentration. […] Clinically useful formulations of these peptides may be straightforward to develop.\nFigure S2. Activity of D-CONGA-Q7 in wound model using 1x and 2x per day administration. Experiments were performed as described in main text, except that treatments with 75 μg of peptide in 20 μL of buffer were administered only once or twice per day. Bacterial […]\nin PBS. Also, Tegaderm biofilm formation is not inhibited by peptide under these conditions.\nResults for three times per day administration are shown in Figs. 8&9 of the main manuscript.\n(1 picture or pasted object on this page, not shown here)\nRadial diffusion results Murine wound infection\nA C 6 hour incubation E 10 Once per day treatment with:\n1.0 Buffer and viscous polymers D-CONGA-Q7 in 0.75% CMC\nPeptide concentration (µM)\nB D 24 hour incubation Once per day treatment with:\nBuffer and viscous polymers 0.75% XG Vehicle only\n1.0% XG D-CONGA-Q7 in 0.75% XG […]"}, "[4]": {"settings": "images with bacteria / all random images"}, "[5]": {"settings": "images with biofilm / all random images"}}, "note": "Where a SMILES comes first, the peptide text is derived from it. [ ]: non-standard residue; d: D form."}
{"compound": "CC(C)C[C@@H](NC(=O)[C@@H](CCC(N)=O)NC(=O)[C@@H](CCCNC(=N)N)NC(=O)[C@@H](CCCNC(=N)N)NC(=O)[C@@H](C)NC(=O)[C@@H](Cc1c[nH]c2ccccc12)NC(=O)[C@@H](CCCNC(=N)N)NC(=O)[C@H](N)CCCNC(=N)N)C(=O)N[C@H](C)C(=O)N[C@H](Cc1ccccc1)C(=O)N[C@H](C)C(=O)N[C@H](Cc1ccccc1)C(=O)N[C@H](CCCNC(=N)N)C(=O)N[C@H](CCCNC(=N)N)C(N)=O", "note": "[D-CONGA-Q7] (H-[dR][dR][dW][dA][dR][dR][dQ][dL][dA][dF][dA][dF][dR][dR]-NH2; N-terminus assumed)", "values": [{"measurement": "Biofilm observed in SEM images", "setting": "[1]", "value": "no biofilm was observed"}, {"measurement": "MRSA: Bacteria Present (SEM images of Tegaderm)", "setting": "MRSA wound biofilms; [4]", "value": "3/35"}, {"measurement": "MRSA: Biofilm present (SEM images of Tegaderm)", "setting": "MRSA wound biofilms; [5]", "value": "0/35"}, {"measurement": "Hemolysis at 100 μM (fractional hemolysis)", "setting": "human RBCs", "value": 0.07}, {"measurement": "Reduction of biofilm CFU", "setting": "[2]; 2 μM, 48 h pellicle biofilm, 24 h challenge, dispersing and counting viable cells", "value": 70, "unit": "%"}, {"measurement": "Reduction of viable biofilm bacteria", "setting": "[2]; 8 μM peptide, 2-day-old pellicle biofilm, 24 h treatment in AB challenge media, 30 °C", "value": "≥ 90", "unit": "%"}, {"measurement": "P. aeruginosa: Bacteria present (SEM images of Tegaderm)", "setting": "[3]; [4]", "value": "8/33"}, {"measurement": "P. aeruginosa: Biofilm present (SEM images of Tegaderm)", "setting": "[3]; [5]", "value": "0/33"}, {"measurement": "Tegaderm biofilm formation, once or twice per day administration", "setting": "wound infections", "value": "not inhibited"}, {"measurement": "Wound bacterial burden, once or twice per day administration", "setting": "wound infections", "value": "not reduced significantly"}]}
